Assay results: ChEMBL document CHEMBL1201862, “PubChem BioAssay data set” (2004)
Activity calls are given as the source filed them.

Tests used:
[1] = Late stage counterscreen results from the probe development effort to identify activators of signal transducer and activator of transcription 1 (STAT1): luminescence-based cell-based dose response assay to identify cytotoxic compounds.; type: functional
[2] = LGR2 antagonists, dose response, cell-based, HEK293, CRE-luciferase reporter, cherry pick, set 2 (AID 743343); type: functional;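 also: transfected cells were stimulated with diluted bursicon conditioned medium after compound addition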
[3] = MC4R antagonists, dose response, counter-screen for LGR2 antagonist project, cell-based, plate reader, cherry pick (AID 743444); type: functional;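 also: transfected HEK 293 cells stimulated with alpha-MSH peptide; potency of inhibitors of the alpha-MSH evoked signal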
[4] = biological target: Cytochrome P450 2C19 (Homo sapiens, UniProt P33261); assay: qHTS Assay for Inhibitors and Substrates of Cytochrome P450 2C19. [Related pubchem assays: 410 ]; type: ADME; details: read-out: Potency
Sequence of Cytochrome P450 2C19 (P33261 whole entry): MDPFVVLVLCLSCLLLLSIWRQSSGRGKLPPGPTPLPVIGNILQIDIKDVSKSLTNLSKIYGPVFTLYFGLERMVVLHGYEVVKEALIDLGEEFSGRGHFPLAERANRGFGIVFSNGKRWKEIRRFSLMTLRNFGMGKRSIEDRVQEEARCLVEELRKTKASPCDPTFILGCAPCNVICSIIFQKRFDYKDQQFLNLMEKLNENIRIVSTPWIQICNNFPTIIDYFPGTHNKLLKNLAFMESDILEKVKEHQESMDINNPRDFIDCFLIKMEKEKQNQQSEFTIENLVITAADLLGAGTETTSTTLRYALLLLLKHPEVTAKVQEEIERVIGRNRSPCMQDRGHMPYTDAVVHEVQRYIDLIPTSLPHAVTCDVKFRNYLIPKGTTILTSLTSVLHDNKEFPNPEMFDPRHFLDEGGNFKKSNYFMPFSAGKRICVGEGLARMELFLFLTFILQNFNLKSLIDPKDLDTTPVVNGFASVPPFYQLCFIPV

[5] = biological target: Cytochrome P450 2C9 (Homo sapiens, UniProt P11712); details: Potency
Sequence of Cytochrome P450 2C9 (P11712 whole entry): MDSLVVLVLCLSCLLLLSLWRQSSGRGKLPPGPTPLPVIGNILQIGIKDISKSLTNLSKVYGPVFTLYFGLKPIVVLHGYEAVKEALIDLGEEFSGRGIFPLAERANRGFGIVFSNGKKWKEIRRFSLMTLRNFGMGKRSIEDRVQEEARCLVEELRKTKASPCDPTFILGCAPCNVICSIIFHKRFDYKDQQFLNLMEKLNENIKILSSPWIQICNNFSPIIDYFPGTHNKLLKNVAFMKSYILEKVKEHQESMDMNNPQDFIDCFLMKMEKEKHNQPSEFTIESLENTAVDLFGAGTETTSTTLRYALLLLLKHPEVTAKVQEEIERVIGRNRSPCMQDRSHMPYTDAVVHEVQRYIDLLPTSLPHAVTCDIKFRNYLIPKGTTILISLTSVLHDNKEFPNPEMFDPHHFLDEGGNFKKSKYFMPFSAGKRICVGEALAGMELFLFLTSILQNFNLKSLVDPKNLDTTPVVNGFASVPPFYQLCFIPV

[6] = biological target: E3 ubiquitin-protein ligase Mdm2 (Homo sapiens, UniProt Q00987); assay: enhancers of MDM2-luciferase reporter signal, concentration-effect titration, project on inhibitors of MDM2 ubiquitin ligase, cellular assay, luminescent readout, 384-well plate format (AID 1394); type: functional;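 also: MDM2 E3 inhibitors raise luminescence so EC50 is for signal enhancement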
Sequence of E3 ubiquitin-protein ligase Mdm2 (Q00987 whole entry): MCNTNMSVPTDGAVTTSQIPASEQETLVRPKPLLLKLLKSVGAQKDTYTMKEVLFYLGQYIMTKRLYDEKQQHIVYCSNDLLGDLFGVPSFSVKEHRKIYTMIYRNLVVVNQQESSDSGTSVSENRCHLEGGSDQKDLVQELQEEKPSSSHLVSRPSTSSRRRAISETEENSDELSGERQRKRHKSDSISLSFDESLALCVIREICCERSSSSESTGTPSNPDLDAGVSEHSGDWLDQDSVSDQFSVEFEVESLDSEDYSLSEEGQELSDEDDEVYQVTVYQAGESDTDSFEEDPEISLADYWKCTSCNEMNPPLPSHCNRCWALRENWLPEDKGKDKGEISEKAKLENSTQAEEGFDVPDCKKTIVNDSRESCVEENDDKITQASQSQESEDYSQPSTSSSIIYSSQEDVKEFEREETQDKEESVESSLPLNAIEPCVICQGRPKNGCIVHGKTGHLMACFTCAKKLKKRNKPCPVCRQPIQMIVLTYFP

[7] = biological target: NADPH oxidase 1 (Homo sapiens, UniProt Q9Y5S8); assay: Late-stage luminescence-based cell-based dose response assay to identify inhibitors of NADPH oxidase 1 (NOX1): Synthesized analogs 2.; type: functional
Sequence of NADPH oxidase 1 (Q9Y5S8 whole entry): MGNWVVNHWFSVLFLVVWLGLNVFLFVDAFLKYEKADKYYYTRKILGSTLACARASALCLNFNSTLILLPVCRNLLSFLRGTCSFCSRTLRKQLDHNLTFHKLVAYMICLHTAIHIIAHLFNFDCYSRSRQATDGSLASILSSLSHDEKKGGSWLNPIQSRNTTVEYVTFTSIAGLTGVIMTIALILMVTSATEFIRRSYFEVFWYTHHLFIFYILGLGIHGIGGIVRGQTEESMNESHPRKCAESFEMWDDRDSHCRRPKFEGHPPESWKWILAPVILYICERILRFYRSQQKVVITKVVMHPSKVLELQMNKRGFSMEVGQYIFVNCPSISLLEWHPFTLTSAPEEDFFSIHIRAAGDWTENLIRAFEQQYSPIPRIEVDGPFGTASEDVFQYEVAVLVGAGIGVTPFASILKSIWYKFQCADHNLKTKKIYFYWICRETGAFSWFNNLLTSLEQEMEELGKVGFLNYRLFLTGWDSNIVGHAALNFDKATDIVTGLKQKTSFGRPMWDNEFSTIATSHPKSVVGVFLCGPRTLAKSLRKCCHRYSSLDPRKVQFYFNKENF

[8] = NIH-3T3 fibroblast cytotoxicity, dose response, cytotoxicity control, cell-based, fluorescence, Alamar Blue, secondary assay (AID 2327); type: functional;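 also: NIH-3T3 mouse fibroblasts cultured with fluconazole at 8 µg/mL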
[9] = Luminescence Cell-Based Dose Response to Identify Activators of 5'UTR Stem-Loop Driven Prion Protein mRNA Translation in H4-C Neuroglioblastoma Cells. [Related pubchem assays: 1829 (Project Summary), 1814 (Primary HTS)]; type: functional
[10] = biological target: Photoreceptor-specific nuclear receptor (Homo sapiens, UniProt Q9Y5X4); type: functional;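 also: potency for compounds that break the NR2E3 corepressor complex and count as activators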
[11] = Luminescence Cell-Based Dose Response HTS to Identify Activators of Luciferase Translation or Activity in H4 […] Cells. [Related pubchem assays: 1829 (Project Summary), 1814 (Primary HTS)]; type: functional
[12] = C. albicans growth with fluconazole, confirmation, fluorescence, retest (AID 2467); type: functional, cell-based
[13] = Luminescence Cell-Based Dose Response to Identify Activators of Luciferase Translation or Activity in H4-C Neuroglioblastoma Cells. [Related pubchem assays: 1829 (Project Summary), 1814 (Primary HTS)]; type: functional
[14] = biological target: Estrogen receptor beta (Homo sapiens, UniProt Q92731);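 also: recombinant ER-beta bound to coactivator SRC1 peptide in presence of estradiol agonist; inhibitors block coactivator peptide binding and lower the FRET signal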
Sequence of Estrogen receptor beta (Q92731 whole entry): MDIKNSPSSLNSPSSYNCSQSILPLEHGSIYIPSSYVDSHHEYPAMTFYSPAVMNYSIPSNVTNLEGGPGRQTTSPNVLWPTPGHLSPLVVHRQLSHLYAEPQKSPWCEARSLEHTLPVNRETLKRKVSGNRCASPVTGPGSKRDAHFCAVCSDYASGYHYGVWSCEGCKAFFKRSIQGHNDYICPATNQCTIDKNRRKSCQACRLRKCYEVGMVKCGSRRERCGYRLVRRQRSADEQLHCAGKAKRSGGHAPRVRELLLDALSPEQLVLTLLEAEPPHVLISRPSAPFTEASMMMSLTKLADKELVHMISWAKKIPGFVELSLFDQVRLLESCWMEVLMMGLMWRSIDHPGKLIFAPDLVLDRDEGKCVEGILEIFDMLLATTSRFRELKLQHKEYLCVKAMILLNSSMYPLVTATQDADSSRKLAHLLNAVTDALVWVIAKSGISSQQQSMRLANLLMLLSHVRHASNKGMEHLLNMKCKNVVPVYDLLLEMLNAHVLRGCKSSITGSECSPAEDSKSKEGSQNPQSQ

[15] = biological target: Voltage-gated inwardly rectifying potassium channel KCNH2 (Homo sapiens, UniProt Q12809); assay: hERG protection from proarrhythmic block, potency, dose response, cell-based, thallium flux (AID 2121); type: ADME
[16] = biological target: Peroxisome proliferator-activated receptor gamma/Nuclear receptor corepressor 2 (Homo sapiens, UniProt P37231+Q9Y618); type: functional
[17] = Luminescence Cell-Based Dose Confirmation to Identify Activators of 5'UTR Stem-Loop Driven Alpha-Synuclein mRNA Translation in H4 Neuroglioblastoma Cells. [Related pubchem assays: 1829 (Project Summary), 1814 (Primary HTS)]; type: functional
[18] = biological target: T1, Polyadenylate-binding protein 1 (Homo sapiens, UniProt P11940); assay: PABP1 MLLE–PAM2 interaction inhibitors, dose response, miRNA deadenylation inhibitor project, biochemical, fluorescence polarization, Cy5-PAM2 peptide, secondary (AID 602260); type: functional; details: read-out: IC50_Mean
T1 sequence (P11940 whole entry): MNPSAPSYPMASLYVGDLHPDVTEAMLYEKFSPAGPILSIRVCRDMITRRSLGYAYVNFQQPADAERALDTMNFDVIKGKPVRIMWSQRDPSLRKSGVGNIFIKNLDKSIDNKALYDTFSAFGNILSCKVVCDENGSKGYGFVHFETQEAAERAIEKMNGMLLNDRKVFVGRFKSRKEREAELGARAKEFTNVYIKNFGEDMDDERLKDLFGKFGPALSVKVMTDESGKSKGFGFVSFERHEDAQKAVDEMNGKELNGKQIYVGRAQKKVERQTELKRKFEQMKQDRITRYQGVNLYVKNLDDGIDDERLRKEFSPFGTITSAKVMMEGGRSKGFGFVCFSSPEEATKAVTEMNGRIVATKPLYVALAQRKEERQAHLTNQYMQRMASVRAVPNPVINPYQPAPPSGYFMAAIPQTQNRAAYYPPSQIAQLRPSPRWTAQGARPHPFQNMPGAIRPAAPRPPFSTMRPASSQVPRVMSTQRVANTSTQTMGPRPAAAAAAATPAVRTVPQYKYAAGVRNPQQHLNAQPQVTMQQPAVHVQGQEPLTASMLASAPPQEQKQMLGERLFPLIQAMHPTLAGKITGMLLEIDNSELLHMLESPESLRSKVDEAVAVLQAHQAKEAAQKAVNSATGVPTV

[19] = biological target: T1, Polyadenylate-binding protein 1; assay: PABP1 MLLE–PAM2 binding inhibitor potency, dose response, biochemical, fluorescence polarization, FITC-PAM2 peptide (AID 602259); type: functional; details: read-out: IC50_Mean
[20] = biological target: T2, Aminopeptidase N (Plasmodium falciparum FcB1/Columbia, UniProt O96935); assay: P. falciparum M1AAP inhibitors, biochemical, fluorogenic H-Leu-NHMec substrate, 1536-well (AID 1445); parameters: species or system Plasmodium falciparum 3D7, 3D7
T2 sequence (O96935 whole entry): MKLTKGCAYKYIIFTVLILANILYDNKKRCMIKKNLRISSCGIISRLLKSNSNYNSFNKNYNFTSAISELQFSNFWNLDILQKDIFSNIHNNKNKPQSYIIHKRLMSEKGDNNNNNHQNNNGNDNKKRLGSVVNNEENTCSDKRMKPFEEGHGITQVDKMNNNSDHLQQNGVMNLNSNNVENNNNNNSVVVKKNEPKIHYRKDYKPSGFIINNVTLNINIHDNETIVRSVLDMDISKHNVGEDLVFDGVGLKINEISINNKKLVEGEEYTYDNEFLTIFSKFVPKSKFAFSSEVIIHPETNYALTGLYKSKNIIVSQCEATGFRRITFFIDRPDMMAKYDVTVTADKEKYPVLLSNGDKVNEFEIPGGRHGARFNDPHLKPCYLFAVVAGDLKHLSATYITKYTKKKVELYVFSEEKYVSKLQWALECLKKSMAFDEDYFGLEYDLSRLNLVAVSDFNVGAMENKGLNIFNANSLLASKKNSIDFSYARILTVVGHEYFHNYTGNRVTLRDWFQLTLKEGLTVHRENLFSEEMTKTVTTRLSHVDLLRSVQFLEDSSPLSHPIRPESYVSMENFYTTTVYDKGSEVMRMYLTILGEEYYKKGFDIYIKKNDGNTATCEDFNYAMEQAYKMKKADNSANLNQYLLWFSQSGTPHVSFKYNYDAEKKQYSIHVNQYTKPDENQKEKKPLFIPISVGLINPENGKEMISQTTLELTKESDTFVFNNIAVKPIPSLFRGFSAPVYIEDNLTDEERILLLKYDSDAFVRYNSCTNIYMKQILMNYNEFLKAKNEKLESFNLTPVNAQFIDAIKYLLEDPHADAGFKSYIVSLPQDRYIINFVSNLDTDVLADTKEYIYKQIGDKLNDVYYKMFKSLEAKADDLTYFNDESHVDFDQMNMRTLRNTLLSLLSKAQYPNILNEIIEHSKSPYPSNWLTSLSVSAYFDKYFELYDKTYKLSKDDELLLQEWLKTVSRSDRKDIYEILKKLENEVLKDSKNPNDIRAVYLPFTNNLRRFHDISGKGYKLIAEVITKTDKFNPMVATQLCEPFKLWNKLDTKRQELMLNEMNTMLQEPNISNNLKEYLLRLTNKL

[21] = biological target: Bifunctional protein GlmU (Mycobacterium tuberculosis, UniProt P9WMN3); assay: Inhibitors of Mycobacterial Glucosamine-1-phosphate acetyl transferase (GlmU). Secondary screen.; parameters: species or system Mycobacterium tuberculosis H37Rv
Sequence of Bifunctional protein GlmU (P9WMN3 whole entry): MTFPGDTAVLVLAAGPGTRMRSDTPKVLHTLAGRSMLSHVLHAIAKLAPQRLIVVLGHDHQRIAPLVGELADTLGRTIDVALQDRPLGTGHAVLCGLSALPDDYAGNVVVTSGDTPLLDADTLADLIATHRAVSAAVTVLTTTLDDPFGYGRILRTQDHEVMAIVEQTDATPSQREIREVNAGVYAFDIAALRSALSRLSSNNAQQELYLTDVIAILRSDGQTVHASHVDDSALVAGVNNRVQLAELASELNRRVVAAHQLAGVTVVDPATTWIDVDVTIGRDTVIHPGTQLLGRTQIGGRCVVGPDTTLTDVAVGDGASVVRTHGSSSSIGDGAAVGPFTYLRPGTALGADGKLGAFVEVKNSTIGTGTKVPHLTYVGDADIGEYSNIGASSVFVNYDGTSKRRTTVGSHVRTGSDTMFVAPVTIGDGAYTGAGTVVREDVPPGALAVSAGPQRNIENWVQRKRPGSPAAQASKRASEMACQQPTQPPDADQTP

[22] = biological target: T3, Sphingosine 1-phosphate receptor 2 (Homo sapiens, UniProt O95136); assay: Dose Response Cell Based Assay for Antagonists of the S1P2 Receptor. [Related pubchem assays: 856, 736 ]; type: functional
T3 sequence (O95136 whole entry): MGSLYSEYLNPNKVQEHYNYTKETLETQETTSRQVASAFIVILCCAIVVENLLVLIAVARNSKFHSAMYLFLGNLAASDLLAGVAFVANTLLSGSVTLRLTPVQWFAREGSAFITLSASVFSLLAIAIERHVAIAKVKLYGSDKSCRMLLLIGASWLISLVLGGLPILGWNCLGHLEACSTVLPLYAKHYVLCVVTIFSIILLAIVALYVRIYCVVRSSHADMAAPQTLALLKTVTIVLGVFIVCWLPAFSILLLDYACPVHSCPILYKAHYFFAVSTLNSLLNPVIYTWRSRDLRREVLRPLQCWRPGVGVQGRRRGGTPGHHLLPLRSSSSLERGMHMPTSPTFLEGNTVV

[23] = biological target: T3, Sphingosine 1-phosphate receptor 2; assay: Dose Response Cell Based Assay for Agonists of the S1P2 Receptor. [Related pubchem assays: 729, 736, 843 ]; type: functional
[24] = inhibitors of intracellular T. cruzi replication, confirmation, NIH3T3 host cells, beta-gal luminescence (AID 2044); type: functional, cell-based;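 also: intracellular parasites grown in NIH/3T3 mouse fibroblasts as host cells; luminescent beta-galactosidase reporter signal from transgenic T. cruzi replicating inside host cells; inhibitors lower the luminescence signal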
[25] = biological target: Aryl hydrocarbon receptor (Homo sapiens, UniProt P35869); assay: Luminescence-based cell-based high throughput dose response assay for activators of the Aryl Hydrocarbon Receptor (AHR). [Related pubchem assays: 2796 (Primary screen (AHR activators in singlicate)), 2845 (Confirmation screen (AHR activators in triplicate)), 434939 (Counterscreen (PXR activators in triplicate)), 2804 (Summary (AHR activators))]; type: ADME
Sequence of Aryl hydrocarbon receptor (P35869 whole entry): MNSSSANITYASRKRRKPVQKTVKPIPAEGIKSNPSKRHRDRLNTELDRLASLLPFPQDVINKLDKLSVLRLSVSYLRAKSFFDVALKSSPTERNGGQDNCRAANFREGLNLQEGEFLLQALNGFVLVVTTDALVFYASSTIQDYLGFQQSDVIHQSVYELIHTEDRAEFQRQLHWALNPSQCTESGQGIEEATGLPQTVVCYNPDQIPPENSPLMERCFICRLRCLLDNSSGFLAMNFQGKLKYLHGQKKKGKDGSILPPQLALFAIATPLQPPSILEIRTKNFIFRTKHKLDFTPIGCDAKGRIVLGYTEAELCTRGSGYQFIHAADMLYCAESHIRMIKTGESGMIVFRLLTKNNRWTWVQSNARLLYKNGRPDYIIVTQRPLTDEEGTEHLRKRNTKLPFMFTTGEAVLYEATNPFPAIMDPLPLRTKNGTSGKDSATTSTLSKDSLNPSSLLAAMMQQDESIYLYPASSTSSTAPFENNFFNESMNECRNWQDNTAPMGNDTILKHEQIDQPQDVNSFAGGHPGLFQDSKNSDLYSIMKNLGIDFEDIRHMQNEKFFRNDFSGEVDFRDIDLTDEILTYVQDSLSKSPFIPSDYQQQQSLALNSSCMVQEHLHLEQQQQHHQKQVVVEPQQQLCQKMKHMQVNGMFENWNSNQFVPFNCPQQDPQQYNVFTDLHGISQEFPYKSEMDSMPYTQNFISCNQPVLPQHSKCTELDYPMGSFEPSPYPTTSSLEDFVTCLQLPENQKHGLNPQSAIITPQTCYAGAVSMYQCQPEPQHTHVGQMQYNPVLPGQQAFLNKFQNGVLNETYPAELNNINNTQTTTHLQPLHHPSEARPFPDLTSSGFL

[26] = cytotoxicity toward NIH3T3 fibroblasts, dose response, counter-screen, cell-based, ATP luminescence, mouse fibroblasts (AID 2010); type: functional;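 also: cells exposed to compound for about 90 hours before reading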
[27] = THP-1 cell cytotoxicity, dose response, cytotoxicity control for non-replicating M. tuberculosis project (AID 489025); type: functional
[28] = HepG2 cell cytotoxicity, dose response, cytotoxicity control for non-replicating M. tuberculosis project (AID 489018); type: functional; details: Mycobacterium tuberculosis
[29] = Vero E6 cell cytotoxicity, dose response, cytotoxicity control for non-replicating M. tuberculosis project, secondary assay (AID 492998); type: functional, VeroE6; details: Vero C1008
[30] = cells; type: functional

In the case of `COc1ccc(-c2cc(C)nc3c(-c4ccccc4)cnn23)cc1`, the IC50 [1] was > 55.7 µM (not active), the AC50 [2] was 15.9 µM (active) and the AC50 [3] was 20.1 µM (active).

With `CC(C)C[C@@H](CC(=O)N[C@@H](CCCN)CC(=O)N[C@@H]1CCCC[C@H]1C(=O)N[C@H](CC(=O)N[C@@H](CCC(=O)O)CC(=O)O)Cc1ccccc1)NC(=O)[C@@H]1CCCC[C@H]1N` the AC50 [4] was 39.8 µM (inconclusive) and the AC50 [5] was 3.98 µM (inconclusive).

In the case of `CC(C)Oc1ccc(C(=O)NC(=S)N2CCOCC2)cc1`, the EC50 [6] was 25 µM (not active).

With `CC(=O)c1ccc2c(c1)N(C(=O)Nc1ccccc1)c1ccccc1S2` the IC50 [7] was 1.56 µM (active).

With `Cc1ccc(C(=O)Nc2nc3ccccc3c(=O)s2)cc1` the EC50 [8] was > 160 µM (inactive), the EC50 [9] was 0.311 µM (active) and the IC50 [10] was > 39.8 µM (not active). The EC50 [11] was < 0.1 µM (inconclusive), the EC50 [12] was 10.2 µM (active) and the EC50 [13] was 0.303 µM (active). The IC50 [14] was > 50 µM (not active), the EC50 [15] was 2.74 µM (active) and the IC50 [16] was 2.71 µM (active). For the same molecule, the EC50 [17] was 0.295 µM (active), the IC50 [18] was > 66 µM (inactive) and the IC50 [19] was > 66 µM (inactive).

In the case of `O=C(CCCN1C(=O)/C(=C/c2ccco2)SC1=S)Nc1ccccc1C(=O)O`, the IC50 [20] was 102 µM (active) and the IC50 [21] was 86 µM (active).

For `CCOC(=O)C1C(=O)CC(C)(O)C(C(=O)OCC)C1c1ccccc1` (stereo not given), the IC50 [22] was > 50 µM (not active).

With `Oc1cccc(C(=S)N2CCN(Cc3ccccc3)CC2)c1` the EC50 [23] was > 50 µM (not active).

In the case of `COc1ccc(/C=N/Nc2cc(C)nc3ccccc23)cc1`, the EC50 [24] was 2.35 µM (active), the EC50 [25] was > 1.13 µM (active) and the EC50 [26] was 11.2 µM (active). For the same molecule, the CC50 [27] was 12.1 µM (active), the CC50 [28] was 12.5 µM (active) and the CC50 [29] was 11 µM (active). For the same molecule, the IC50 [30] was 11.1 µM (active).
